From article PMC9304124 (Clinical Pharmacology in Drug Development, 2022)
Where two headings read alike, the source gives them in different places.

Columns and labels:
[1] = basis for study design, no reference given; cited from earlier work
[2] = Steady-state plasma PK of NE and EE, NE/EE given alone or with trametinib (phase 1 DDI study); settings: for AUC(0-t): AUClast; for AUC: AUCtau
[3] = set-up: method as in PMID 23971497; settings: human plasma; cited from earlier work
phospho‐MEK1 = test system: phospho‐MEK1; set-up: method as in PMID 23971497; settings: in vitro; read-out: half maximal inhibitory concentration to inhibit phospho‐MEK1; cited from earlier work
clinical = settings: female, human, plasma, oral
CYP3A4 [4] = test system: CYP3A4; set-up: method as in PMID 24748562; settings: in vitro; read-out: EC50 for CYP3A4 mRNA induction; cited from earlier work
[5] = Steady-state plasma PK of trametinib and metabolite M5 when coadministered with NE/EE; settings: trametinib 2 mg daily + NE/EE, day 21, plasma
Experimental: Both regimens were continued until day 21 (Figure 1).
Extracts were analyzed using LC‐MS/MS.

[6] = overall study, N = 19
[7] = cited from earlier work
CYP3A4 [8] = settings: in vitro, cited from earlier work
UGT1A1 = test system: UGT1A1; set-up: method as in PMID 26347206, PMID 31445021; settings: in vitro; cited from earlier work
CYP1A2 = test system: CYP1A2; set-up: method as in PMID 26347206, PMID 31445021; settings: in vitro; cited from earlier work
CYP2A6 = test system: CYP2A6; set-up: method as in PMID 26347206, PMID 31445021; settings: in vitro; cited from earlier work
CYP2B6 = test system: CYP2B6; set-up: method as in PMID 26347206, PMID 31445021; settings: in vitro; cited from earlier work
CYP2D6 = test system: CYP2D6; set-up: method as in PMID 26347206, PMID 31445021; settings: in vitro; cited from earlier work
CYP3A4 [9] = test system: CYP3A4; set-up: method as in PMID 26347206, PMID 31445021; settings: in vitro; cited from earlier work
[10] = set-up: method as in Novartis, unpublished data; settings: ref Novartis, unpublished data; cited from earlier work
[11] = female, human, plasma, oral, adjusted geo‐mean, NE/EE + T, linear mixed-effects model
[12] = female, human, plasma, oral, adjusted geo‐mean, NE/EE alone, linear mixed-effects model
[13] = female, human, plasma, oral, geo‐mean (geo‐CV%), NE/EE alone, day 5, plasma
[14] = female, human, plasma, oral, mean (SD), NE/EE alone, day 5, plasma

C#C[C@]1(O)CC[C@H]2[C@@H]3CCc4cc(O)ccc4[C@H]3CC[C@@]21C [EE, ethinyl estradiol]
mean t1/2 [1]: 20 h | Ctrough, mean (SD) ([2]; NE/EE alone, day 5, plasma): 22.2 (12.6) pg/mL | AUCtau, adjusted geo‐mean ([2]; NE/EE alone, linear mixed-effects model): 1.06 ng·h/mL | AUC(0-t) [2, 11]: 1.07 ng·h/mL | AUC(0-t) [2, 12]: 1.02 ng·h/mL | AUC(0-t) [2, 13]: 0.983 ng·h/mL | AUC(0-t) [2, 14]: 1.15 ng·h/mL | AUC [2, 11]: 1.12 ng·h/mL | AUC ([2]; female, human, plasma, oral, geo‐mean (geo‐CV%), NE/EE alone (1 mg NE/0.035 mg EE daily), day 5, plasma): 1.02 ng·h/mL | AUC [2, 14]: 1.16 ng·h/mL | Cmax [2, 11]: 0.128 ng/mL | Cmax [2, 12]: 0.14 ng/mL | Cmax [2, 13]: 0.135 ng/mL | Cmax [2, 14]: 0.151 ng/mL | Tmax ([2]; female, human, plasma, oral, tmax, median (range), NE/EE alone, day 5, plasma): 0.98 h

Cc1c(=O)n(C)c(Nc2ccc(I)cc2F)c2c(=O)n(C3CC3)c(=O)n(-c3cccc(N)c3)c12 [M5]
share of drug‐related material in plasma [3]: < 11% | IC50 (phospho‐MEK1): 9 ± 1 nM

C#C[C@]1(O)CC[C@H]2[C@@H]3CCC4=CC(=O)CC[C@@H]4[C@H]3CC[C@@]21C [NE, norethindrone]
Tmax (clinical): 1.02 h | half-life (clinical): 9.06 h | CL/F, geo‐mean (geo‐CV%) ([2]; NE/EE alone, day 5, plasma): 9.41 (76.9) L/h | Ctrough, geo‐mean (geo‐CV%) ([2]; NE/EE alone, day 5, plasma): 1060 (165.5) pg/mL | Ctrough, mean (SD) ([2]; NE/EE alone, day 5, plasma): 1940 (2850) pg/mL | tmax, median (range) ([2]; NE/EE alone, day 5, plasma): 1.00 (0.50‐24) h | AUC(0-t) [2, 11]: 127 ng·h/mL | AUC(0-t) [2, 12]: 106 ng·h/mL | AUC [2, 11]: 131 ng·h/mL | AUC [2, 12]: 110 ng·h/mL | Cmax [2, 11]: 17.1 ng/mL | Cmax [2, 12]: 15.2 ng/mL | half-life ([2]; female, human, plasma, oral, t½, median (range), NE/EE alone, day 5, plasma): 9.22 h

CC(=O)Nc1cccc(-n2c(=O)n(C3CC3)c(=O)c3c(Nc4ccc(I)cc4F)n(C)c(=O)c(C)c32)c1 [trametinib, Trametinib]
Cmax, geo‐mean (geo‐CV%) [5]: 27.4 (35.4) ng/mL | AE of special interest: patients with bleeding events [6]: 15.8% | AE of special interest: patients with cardiac‐related event [6]: 5.3% | AE of special interest: patients with hepatic disorders [6]: 26.3% | AE of special interest: patients with hypertension [6]: 15.8% | AE of special interest: patients with skin toxicity [6]: 63.2% | peak:trough ratio ([7]; 2 mg once daily): 1.8 | time to reach Cmax (tmax) ([7]; 2 mg once daily): 1.5 h | clinically relevant systemic exposure (concentration) ([7]; based on the Cmax of 22.2 ng/mL): ≈ 0.04 μM | intrasubject variability [7]: more than 30% | geo‐mean AUC0‐24 ([7]; trametinib 2 mg in the absence of COC): 370 ng·h/mL | IC50 (phospho‐MEK1): 7 ± 0.1 nM | maximal effect of CYP3A4 induction, % of that of rifampicin (CYP3A4 [8]; hepatocytes, ref Novartis, unpublished data): 69% | EC50 (CYP3A4 [8]; hepatocytes, ref Novartis, unpublished data, read-out: EC50 for CYP3A4 induction): 1700 nM | CYP3A4 induction (in words) (CYP3A4 [8]): low‐level inducer | UGT1A1 inhibition (in words) (UGT1A1): inhibitor | CYP1A2 inhibition (in words) (CYP1A2): no inhibitory activity | CYP2A6 inhibition (in words) (CYP2A6): no inhibitory activity | CYP2B6 inhibition (in words) (CYP2B6): no inhibitory activity | CYP2D6 inhibition (in words) (CYP2D6): no inhibitory activity | CYP3A4 inhibition (in words) (CYP3A4 [9]): no inhibitory activity | findings in animal reproduction studies (in words) [10]: maternal and developmental toxicities
